Source: article PMC7271024, “N1-Benzofused Modification of Fluoroquinolones Reduces Activity Against Gram-Negative Bacteria” (ACS Omega, 2020)
Converted amounts (≈) assume the structure as drawn.

Tests used:
K. pneumoniae NCTC 13368 = assay: MIC, microdilution broth method; assay type: cell-based, Klebsiella pneumoniae; conditions: for MIC: Klebsiella pneumoniae; for potentiation of MIC by PMBN: MIC –PMBN vs +PMBN
Procedure: (§1) The antibacterial activities of the synthesized fluoroquinolones were evaluated against a panel of Gram-negative pathogens including K. pneumoniae (NCTC 13368, M6), Acinetobacter baumannii (AYE, ATCC 17978), Pseudomonas aeruginosa (PAO1, NCTC 13437), and Escherichia coli (NCTC 12923, LEC001). The ability of molecules to permeate the Gram-negative outer membrane was investigated by adding membrane permeabilizer polymyxin B nonapeptide (PMBN) at sub-inhibitory concentrations (Table 2). Phenylalanine–arginine β-naphthylamide (PAβN) was used to investigate efflux of compounds by resistance–nodulation–division (RND)-family efflux pumps (Table 3).
(§2) Minimal inhibitory concentrations (MICs) were determined using the microdilution broth method. Briefly, compounds were added to the first two columns of a 96-well plate and diluted two-fold down the plate in tryptic soy broth. Overnight cultures of bacteria were then adjusted to a concentration of 1 × 10^6 CFU/mL and added to each well for a final concentration of 5 × 10^5 CFU/mL.

A. baumannii AYE = assay: MIC, microdilution broth method; assay type: cell-based, Acinetobacter baumannii; conditions: for MIC: Acinetobacter baumannii
Procedure: as §1, §2

[1] = test system: panel of Gram-negative pathogens; assay: MIC panel, statements across strains; assay type: cell-based, K. pneumoniae, A. baumannii, P. aeruginosa, E. coli; conditions: versus ciprofloxacin
Procedure: as §1, §2

E. coli LEC001 = assay: MIC, microdilution broth method; assay type: cell-based, Escherichia coli; conditions: for MIC: Escherichia coli
Procedure: as §1, §2

P. aeruginosa PAO1 = assay: MIC, microdilution broth method; assay type: cell-based, Pseudomonas aeruginosa; conditions: Pseudomonas aeruginosa
E. coli NCTC 12923 = assay: MIC, microdilution broth method; assay type: cell-based, Escherichia coli; conditions: for MIC: Escherichia coli
A. baumannii ATCC 17978 = assay: MIC, microdilution broth method; assay type: cell-based, Acinetobacter baumannii; conditions: for MIC: Acinetobacter baumannii; for potentiation of MIC by PMBN: MIC –PMBN vs +PMBN
P. aeruginosa NCTC 13437 = assay: MIC, microdilution broth method; assay type: cell-based, Pseudomonas aeruginosa; conditions: Pseudomonas aeruginosa
Procedure: as §1, §2

K. pneumoniae M6 = assay: MIC, microdilution broth method; assay type: cell-based, Klebsiella pneumoniae; conditions: for MIC: Klebsiella pneumoniae; for potentiation of MIC by PMBN: MIC –PMBN vs +PMBN
E. coli DNA gyrase = biological target: T1, E. coli DNA gyrase (Escherichia coli, UniProt P0AES4+P0AES6); assay: Cell-free gyrase supercoiling inhibition assay; assay type: biochemical; conditions: purified enzyme, cell-free supercoiling kit
T1 construct: purchased Inspiralis (Norwich, UK) K0001

[2] = Solubility as observed in the MIC and enzyme experiments; assay type: physicochemical; conditions: S. aureus DNA gyrase / topoisomerase IV assay media, at the high concentrations required
Procedure: In vitro activity assays using purified S. aureus, E. coli and P. aeruginosa DNA gyrase, and S. aureus topoisomerase IV enzymes were performed in order to evaluate whether the gains in inhibitory activity predicted for the benzofused compounds were accurate. The benzothiophene-containing 6e was selected as a representative compound for the purposes of this experiment. […].
A general correlation between N1 substituent hydrophobicity and activity is observed; […].

P. aeruginosa DNA gyrase = biological target: T2, P. aeruginosa DNA gyrase (Pseudomonas aeruginosa, UniProt P48372+Q9I7C2); assay: Cell-free gyrase supercoiling inhibition assay; assay type: biochemical; conditions: purified enzyme, cell-free supercoiling kit
T2 construct: purchased Inspiralis (Norwich, UK) PAS001

[3] = NCTC13368, +PMBN (30 μg/mL), ciprofloxacin-resistant strain (R)
[4] = NCTC13368, –PMBN, ciprofloxacin-resistant strain (R)
[5] = +PMBN (30 μg/mL), ciprofloxacin-resistant strain (R)
[6] = –PMBN, ciprofloxacin-resistant strain (R)
[7] = LEC001, +PMBN (30 μg/mL), ciprofloxacin-resistant strain (R)
[8] = LEC001, –PMBN, ciprofloxacin-resistant strain (R)
[9] = PAO1, +PMBN (30 μg/mL), ciprofloxacin-sensitive strain (S)
[10] = PAO1, –PMBN, ciprofloxacin-sensitive strain (S)
[11] = NCTC12923, +PMBN (30 μg/mL), ciprofloxacin-sensitive strain (S)
[12] = NCTC12923, –PMBN, ciprofloxacin-sensitive strain (S)
[13] = ATCC17978, +PMBN (30 μg/mL), ciprofloxacin-sensitive strain (S)
[14] = ATCC17978, –PMBN, ciprofloxacin-sensitive strain (S)
[15] = NCTC13437, +PMBN (30 μg/mL), ciprofloxacin-resistant strain (R)
[16] = NCTC13437, –PMBN, ciprofloxacin-resistant strain (R)
[17] = M6, +PMBN (30 μg/mL), ciprofloxacin-sensitive strain (S)
[18] = M6, –PMBN, ciprofloxacin-sensitive strain (S)
[19] = RND-family efflux inhibitor PAβN
[20] = PAβN, text names A. baumannii only

T1 sequence (P0AES4 whole entry, one chain of several): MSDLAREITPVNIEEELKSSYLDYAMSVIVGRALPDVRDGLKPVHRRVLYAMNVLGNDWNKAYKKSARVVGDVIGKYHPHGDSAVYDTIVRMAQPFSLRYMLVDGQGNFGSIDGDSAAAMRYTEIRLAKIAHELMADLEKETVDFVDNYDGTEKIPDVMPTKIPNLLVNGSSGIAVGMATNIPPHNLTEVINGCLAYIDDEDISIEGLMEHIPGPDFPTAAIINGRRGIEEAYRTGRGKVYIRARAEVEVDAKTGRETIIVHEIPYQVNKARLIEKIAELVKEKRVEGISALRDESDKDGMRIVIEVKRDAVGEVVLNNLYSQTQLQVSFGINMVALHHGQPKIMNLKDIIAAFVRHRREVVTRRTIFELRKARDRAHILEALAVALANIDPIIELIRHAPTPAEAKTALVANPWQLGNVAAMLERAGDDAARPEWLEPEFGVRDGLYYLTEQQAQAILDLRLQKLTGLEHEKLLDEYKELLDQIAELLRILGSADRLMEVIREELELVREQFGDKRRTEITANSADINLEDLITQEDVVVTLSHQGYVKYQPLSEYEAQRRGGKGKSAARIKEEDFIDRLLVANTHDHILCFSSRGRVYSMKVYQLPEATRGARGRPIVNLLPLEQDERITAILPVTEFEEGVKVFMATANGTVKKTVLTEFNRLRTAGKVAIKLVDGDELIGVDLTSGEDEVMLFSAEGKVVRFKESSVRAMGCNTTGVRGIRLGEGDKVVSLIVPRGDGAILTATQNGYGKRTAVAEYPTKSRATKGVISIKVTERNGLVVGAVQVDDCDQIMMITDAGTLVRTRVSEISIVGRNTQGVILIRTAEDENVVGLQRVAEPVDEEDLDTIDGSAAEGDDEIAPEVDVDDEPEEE
T2 sequence (Q9I7C2 whole entry): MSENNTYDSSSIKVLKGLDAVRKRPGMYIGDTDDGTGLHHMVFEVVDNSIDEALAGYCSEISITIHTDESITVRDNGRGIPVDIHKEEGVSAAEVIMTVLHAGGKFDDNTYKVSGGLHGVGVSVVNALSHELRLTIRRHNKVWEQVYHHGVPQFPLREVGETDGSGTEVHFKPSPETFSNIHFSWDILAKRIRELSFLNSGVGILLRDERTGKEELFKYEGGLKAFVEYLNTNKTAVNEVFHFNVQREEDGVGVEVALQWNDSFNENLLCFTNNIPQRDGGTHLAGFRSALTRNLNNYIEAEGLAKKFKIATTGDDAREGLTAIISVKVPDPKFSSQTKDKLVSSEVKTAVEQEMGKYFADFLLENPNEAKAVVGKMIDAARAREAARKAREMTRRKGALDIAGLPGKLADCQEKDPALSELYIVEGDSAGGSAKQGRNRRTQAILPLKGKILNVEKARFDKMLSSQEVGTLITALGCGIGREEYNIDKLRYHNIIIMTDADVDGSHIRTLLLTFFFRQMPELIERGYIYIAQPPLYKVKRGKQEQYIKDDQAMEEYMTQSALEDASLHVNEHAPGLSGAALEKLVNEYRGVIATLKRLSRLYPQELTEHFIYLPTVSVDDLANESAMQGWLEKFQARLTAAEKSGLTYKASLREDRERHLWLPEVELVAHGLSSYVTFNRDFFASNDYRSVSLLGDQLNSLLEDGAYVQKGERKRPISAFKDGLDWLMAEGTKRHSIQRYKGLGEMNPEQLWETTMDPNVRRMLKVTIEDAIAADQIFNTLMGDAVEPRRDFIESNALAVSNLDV
T2 sequence (P48372 whole entry): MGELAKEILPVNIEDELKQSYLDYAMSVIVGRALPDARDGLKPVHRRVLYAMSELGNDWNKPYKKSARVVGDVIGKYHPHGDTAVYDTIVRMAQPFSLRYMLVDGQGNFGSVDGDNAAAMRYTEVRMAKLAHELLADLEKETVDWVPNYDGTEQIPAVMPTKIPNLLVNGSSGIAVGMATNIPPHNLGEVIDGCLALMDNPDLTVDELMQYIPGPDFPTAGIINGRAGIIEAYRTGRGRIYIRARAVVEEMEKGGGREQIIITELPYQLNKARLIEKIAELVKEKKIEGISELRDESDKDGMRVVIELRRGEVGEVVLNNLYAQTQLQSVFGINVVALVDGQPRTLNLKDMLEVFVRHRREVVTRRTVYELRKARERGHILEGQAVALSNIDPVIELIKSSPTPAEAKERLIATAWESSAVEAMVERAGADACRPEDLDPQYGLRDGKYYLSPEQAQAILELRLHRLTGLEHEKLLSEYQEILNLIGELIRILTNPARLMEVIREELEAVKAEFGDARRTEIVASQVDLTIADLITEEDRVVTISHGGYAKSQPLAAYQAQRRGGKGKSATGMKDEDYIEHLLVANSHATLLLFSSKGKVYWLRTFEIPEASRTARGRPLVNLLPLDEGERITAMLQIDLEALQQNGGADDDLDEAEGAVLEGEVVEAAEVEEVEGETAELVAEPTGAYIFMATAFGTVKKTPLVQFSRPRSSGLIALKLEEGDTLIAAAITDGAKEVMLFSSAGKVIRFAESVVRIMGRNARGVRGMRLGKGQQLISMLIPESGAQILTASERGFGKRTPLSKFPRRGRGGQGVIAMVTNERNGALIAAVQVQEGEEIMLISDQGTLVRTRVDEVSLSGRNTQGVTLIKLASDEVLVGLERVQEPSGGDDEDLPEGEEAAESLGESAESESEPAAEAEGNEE

Structure (SMILES): O=C(O)c1cn(-c2cccc3ccoc23)c2cc(N3CCNCC3)c(F)cc2c1=O [Compound 6d]
- MIC (K. pneumoniae NCTC 13368; [3]): 2 µg/mL (≈ 4.91 µM)
- MIC (K. pneumoniae NCTC 13368; [4]): 16 µg/mL (≈ 39.3 µM)
- potentiation of MIC by PMBN (K. pneumoniae NCTC 13368): 4–8 fold
- MIC (A. baumannii AYE; [5]): > 32 µg/mL
- MIC (A. baumannii AYE; [6]): > 32 µg/mL
- antibacterial activity [1]: limited activity
- MIC (E. coli LEC001; [7]): > 32 µg/mL
- MIC (E. coli LEC001; [8]): > 32 µg/mL
- MIC (P. aeruginosa PAO1; [9]): 0.5 µg/mL (≈ 1.23 µM)
- MIC (P. aeruginosa PAO1; [10]): 8 to 16 µg/mL (≈ 19.6 to 39.3 µM)
- MIC (E. coli NCTC 12923; [11]): 0.25 µg/mL (≈ 0.614 µM)
- MIC (E. coli NCTC 12923; [12]): 1 µg/mL (≈ 2.45 µM)
- MIC (A. baumannii ATCC 17978; [13]): 1 µg/mL (≈ 2.45 µM)
- MIC (A. baumannii ATCC 17978; [14]): 2 µg/mL (≈ 4.91 µM)
- potentiation of MIC by PMBN (A. baumannii ATCC 17978): 2 fold
- MIC (P. aeruginosa NCTC 13437; [15]): 32 µg/mL (≈ 78.5 µM)
- MIC (P. aeruginosa NCTC 13437; [16]): > 32 µg/mL
- MIC (K. pneumoniae M6; [17]): 0.5 µg/mL (≈ 1.23 µM)
- MIC (K. pneumoniae M6; [18]): 1 to 2 µg/mL (≈ 2.45 to 4.91 µM)
- potentiation of MIC by PMBN (K. pneumoniae M6): 2–4 fold

Structure (SMILES): O=C(O)c1cn(-c2cccc3ccsc23)c2cc(N3CCNCC3)c(F)cc2c1=O [Compound 6e]
- MIC (K. pneumoniae NCTC 13368; NCTC13368, +PAβN (25 μg/mL), Table 3, strain R): 4 µg/mL (≈ 9.45 µM)
- MIC (K. pneumoniae NCTC 13368; [3]): 8 µg/mL (≈ 18.9 µM)
- MIC (K. pneumoniae NCTC 13368; NCTC13368, –PAβN, Table 3, strain R): > 32 µg/mL
- MIC (K. pneumoniae NCTC 13368; [4]): 32 µg/mL (≈ 75.6 µM)
- potentiation of MIC by PMBN (K. pneumoniae NCTC 13368): 4–8 fold
- effect of PAβN on MIC (K. pneumoniae NCTC 13368; [19]): significant potentiation
- IC50 (E. coli DNA gyrase): 6.38 µM
- MIC (A. baumannii AYE; +PAβN (25 μg/mL), Table 3, strain R): > 32 µg/mL
- MIC (A. baumannii AYE; [5]): > 32 µg/mL
- MIC (A. baumannii AYE; –PAβN, Table 3, strain R): > 32 µg/mL
- MIC (A. baumannii AYE; [6]): > 32 µg/mL
- effect of PAβN on MIC (A. baumannii AYE; [20]): Neither ciprofloxacin nor compound 6e showed any difference in MIC
- antibacterial activity [1]: limited activity
- MIC (E. coli LEC001; LEC001, +PAβN (25 μg/mL), Table 3, strain R): > 32 µg/mL
- MIC (E. coli LEC001; [7]): > 32 µg/mL
- MIC (E. coli LEC001; LEC001, –PAβN, Table 3, strain R): > 32 µg/mL
- MIC (E. coli LEC001; [8]): > 32 µg/mL
- effect of PAβN on MIC (E. coli LEC001; PAβN, text names E. coli only): No effect
- MIC (P. aeruginosa PAO1; PAO1, +PAβN (25 μg/mL), Table 3, strain S): 2 µg/mL (≈ 4.72 µM)
- MIC (P. aeruginosa PAO1; [9]): 2 µg/mL (≈ 4.72 µM)
- MIC (P. aeruginosa PAO1; PAO1, –PAβN, Table 3, strain S): 32 µg/mL (≈ 75.6 µM)
- MIC (P. aeruginosa PAO1; [10]): 32 µg/mL (≈ 75.6 µM)
- solubility in assay media [2]: poorly soluble
- MIC (E. coli NCTC 12923; NCTC12923, +PAβN (25 μg/mL), Table 3, strain S): 0.25 µg/mL (≈ 0.59 µM)
- MIC (E. coli NCTC 12923; [11]): 1 µg/mL (≈ 2.36 µM)
- MIC (E. coli NCTC 12923; NCTC12923, –PAβN, Table 3, strain S): 0.25 to 2 µg/mL (≈ 0.59 to 4.72 µM)
- MIC (E. coli NCTC 12923; [12]): 4 µg/mL (≈ 9.45 µM)
- effect of PAβN on MIC (E. coli NCTC 12923; PAβN, text names E. coli only): No effect
- MIC (A. baumannii ATCC 17978; ATCC17978, +PAβN (25 μg/mL), Table 3, strain S): 4 µg/mL (≈ 9.45 µM)
- MIC (A. baumannii ATCC 17978; [13]): 4 µg/mL (≈ 9.45 µM)
- MIC (A. baumannii ATCC 17978; ATCC17978, –PAβN, Table 3, strain S): 4 µg/mL (≈ 9.45 µM)
- MIC (A. baumannii ATCC 17978; [14]): 8 µg/mL (≈ 18.9 µM)
- potentiation of MIC by PMBN (A. baumannii ATCC 17978): 2 fold
- effect of PAβN on MIC (A. baumannii ATCC 17978; [20]): Neither ciprofloxacin nor compound 6e showed any difference in MIC
- MIC (P. aeruginosa NCTC 13437; NCTC13437, +PAβN (25 μg/mL), Table 3, strain R): > 32 µg/mL
- MIC (P. aeruginosa NCTC 13437; [15]): 32 µg/mL (≈ 75.6 µM)
- MIC (P. aeruginosa NCTC 13437; NCTC13437, –PAβN, Table 3, strain R): > 32 µg/mL
- MIC (P. aeruginosa NCTC 13437; [16]): > 32 µg/mL
- MIC (K. pneumoniae M6; M6, +PAβN (25 μg/mL), Table 3, strain S): 1 µg/mL (≈ 2.36 µM)
- MIC (K. pneumoniae M6; [17]): 2 µg/mL (≈ 4.72 µM)
- MIC (K. pneumoniae M6; M6, –PAβN, Table 3, strain S): 8 µg/mL (≈ 18.9 µM)
- MIC (K. pneumoniae M6; [18]): 8 µg/mL (≈ 18.9 µM)
- potentiation of MIC by PMBN (K. pneumoniae M6): 2–4 fold
- effect of PAβN on MIC (K. pneumoniae M6; [19]): significant potentiation
- IC50 (P. aeruginosa DNA gyrase): 15.8 µM
